This is an account of results in ChEMBL document CHEMBL4196089, “Design, synthesis, biological evaluation and in vivo testing of dual phosphodiesterase 5 (PDE5) and histone deacetylase 6 (HDAC6)-selective inhibitors for the treatment of Alzheimer's disease” (Eur J Med Chem, 2018).

By IC50 is commonly meant the concentration at which inhibition is half-maximal. A word on the inhibition: it is how much of the control response was suppressed. Usually half-life stands for how long it takes for the measured level to halve.

Data set [1] concerns the target T1, Histone deacetylase 1 (Homo sapiens, UniProt Q13547). Description: Inhibition of full length human recombinant C-terminal FLAG/His-tagged HDAC1 expressed in baculovirus infected sf9 cells using fluorogenic HDAC substrate 3 after 4 hrs fluorescence assay.
In data set [2] the target is T1, Histone deacetylase 1. Description: Inhibition of full length human recombinant C-terminal FLAG/His-tagged HDAC1 expressed in baculovirus infected sf9 cells assessed residence time preincubated fopr 2 hrs followed by dilution and subsequent fluorogenic HDAC substrate 3 addition measured at 2 mins time interval by fluorescence based jump dilution assay.
The target of data set [3] is cGMP-specific 3',5'-cyclic phosphodiesterase (Homo sapiens, UniProt O76074). Put plainly: Inhibition of full length human recombinant N-terminal GST-tagged PDE5A1 expressed in baculovirus infected sf9 cells using cGMP as substrate after 30 mins by fluorescence assay.
Data set [4] in a line: Effective permeability of the compound at 50 uM after 18 hrs by UV spectroscopy based PAMPA. It counts as ADME. The conditions noted are these: read-out: Peff.
Data set [5] can be described thus: Inhibition of class-1 HDAC in human SH-SY5Y cells assessed as induction of AcH3K9 level at 160 nM after 2 hrs by AlphaLISA assay. The data set is classed as cell-based. The following applies: 0.16 µM.
Data set [6] addresses CYP2C19 (Homo sapiens, UniProt P33261). Description: Inhibition of CYP2C19 in human liver microsomes at 10 uM after 10 mins in presence of NADPH by LC-MS/MS analysis relative to control. It counts as ADME. For orientation: Liver microsomes are vesicles of endoplasmic reticulum, rich in cytochrome P450 enzymes.
Data set [7] in a line: Half life in human liver microsomes at 1 uM preincubated for 10 mins followed by NADPH addition measured up to 60 mins by LC-MS/MS analysis. It counts as ADME, microsome.
Data set [8] deals with Cone cGMP-specific 3',5'-cyclic phosphodiesterase subunit alpha' (Homo sapiens, UniProt P51160). Description: Inhibition of PDE6C (unknown origin) using FAM-cGMP as substrate by fluorescence assay.
For data set [9], the target named is Histone deacetylase 5 (Homo sapiens, UniProt Q9UQL6). Put plainly: Inhibition of human HDAC5.
Data set [10] concerns the target Histone deacetylase 4 (Homo sapiens, UniProt P56524). Description: Inhibition of human HDAC4.
The test system of data set [11] is Mus musculus. Description: Cognitive enhancing effect in Tg2576 mouse model of Alzheimer's disease assessed as long term associative memory improvement by measuring freezing after electric shock at 40 mg/kg, ip for 2 weeks measured at 24 hrs post electric shock (reference value: 54%). It counts as functional.
The nature of data set [12]: cells. The conditions noted are these: Homo sapiens, SH-SY5Y, 2 h, read-out: FC.
The nature of data set [13]: cells. The conditions noted are these: Homo sapiens, SH-SY5Y, 2 h, read-out: FC. This is another data set of the same source.

T1 sequence (Q13547 whole entry): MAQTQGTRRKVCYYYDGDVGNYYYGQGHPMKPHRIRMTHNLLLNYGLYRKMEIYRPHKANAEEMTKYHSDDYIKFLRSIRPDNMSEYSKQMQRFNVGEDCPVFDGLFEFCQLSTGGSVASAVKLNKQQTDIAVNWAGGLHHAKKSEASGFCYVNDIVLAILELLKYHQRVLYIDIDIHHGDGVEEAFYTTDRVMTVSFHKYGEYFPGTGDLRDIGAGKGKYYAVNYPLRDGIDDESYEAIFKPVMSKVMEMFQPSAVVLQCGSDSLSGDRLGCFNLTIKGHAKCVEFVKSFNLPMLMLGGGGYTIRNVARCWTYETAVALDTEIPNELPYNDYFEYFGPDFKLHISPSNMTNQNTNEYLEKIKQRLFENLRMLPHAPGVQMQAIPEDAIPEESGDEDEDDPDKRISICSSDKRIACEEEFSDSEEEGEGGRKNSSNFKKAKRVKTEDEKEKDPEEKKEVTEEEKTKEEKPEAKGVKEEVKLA
CYP2C19, sequence (P33261 whole entry): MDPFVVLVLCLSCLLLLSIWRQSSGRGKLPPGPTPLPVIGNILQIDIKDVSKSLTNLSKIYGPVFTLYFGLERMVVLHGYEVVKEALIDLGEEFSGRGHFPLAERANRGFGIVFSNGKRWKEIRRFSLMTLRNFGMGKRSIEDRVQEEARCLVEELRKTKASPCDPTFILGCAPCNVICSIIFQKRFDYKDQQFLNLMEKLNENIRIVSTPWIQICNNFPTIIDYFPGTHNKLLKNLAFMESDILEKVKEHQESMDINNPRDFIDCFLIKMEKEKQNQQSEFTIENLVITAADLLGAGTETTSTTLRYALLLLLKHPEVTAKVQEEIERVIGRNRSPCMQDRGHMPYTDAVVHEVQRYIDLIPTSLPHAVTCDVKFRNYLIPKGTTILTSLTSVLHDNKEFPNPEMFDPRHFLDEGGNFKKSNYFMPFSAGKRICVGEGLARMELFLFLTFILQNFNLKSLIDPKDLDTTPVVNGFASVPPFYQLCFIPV
Histone deacetylase 5, sequence (Q9UQL6 whole entry): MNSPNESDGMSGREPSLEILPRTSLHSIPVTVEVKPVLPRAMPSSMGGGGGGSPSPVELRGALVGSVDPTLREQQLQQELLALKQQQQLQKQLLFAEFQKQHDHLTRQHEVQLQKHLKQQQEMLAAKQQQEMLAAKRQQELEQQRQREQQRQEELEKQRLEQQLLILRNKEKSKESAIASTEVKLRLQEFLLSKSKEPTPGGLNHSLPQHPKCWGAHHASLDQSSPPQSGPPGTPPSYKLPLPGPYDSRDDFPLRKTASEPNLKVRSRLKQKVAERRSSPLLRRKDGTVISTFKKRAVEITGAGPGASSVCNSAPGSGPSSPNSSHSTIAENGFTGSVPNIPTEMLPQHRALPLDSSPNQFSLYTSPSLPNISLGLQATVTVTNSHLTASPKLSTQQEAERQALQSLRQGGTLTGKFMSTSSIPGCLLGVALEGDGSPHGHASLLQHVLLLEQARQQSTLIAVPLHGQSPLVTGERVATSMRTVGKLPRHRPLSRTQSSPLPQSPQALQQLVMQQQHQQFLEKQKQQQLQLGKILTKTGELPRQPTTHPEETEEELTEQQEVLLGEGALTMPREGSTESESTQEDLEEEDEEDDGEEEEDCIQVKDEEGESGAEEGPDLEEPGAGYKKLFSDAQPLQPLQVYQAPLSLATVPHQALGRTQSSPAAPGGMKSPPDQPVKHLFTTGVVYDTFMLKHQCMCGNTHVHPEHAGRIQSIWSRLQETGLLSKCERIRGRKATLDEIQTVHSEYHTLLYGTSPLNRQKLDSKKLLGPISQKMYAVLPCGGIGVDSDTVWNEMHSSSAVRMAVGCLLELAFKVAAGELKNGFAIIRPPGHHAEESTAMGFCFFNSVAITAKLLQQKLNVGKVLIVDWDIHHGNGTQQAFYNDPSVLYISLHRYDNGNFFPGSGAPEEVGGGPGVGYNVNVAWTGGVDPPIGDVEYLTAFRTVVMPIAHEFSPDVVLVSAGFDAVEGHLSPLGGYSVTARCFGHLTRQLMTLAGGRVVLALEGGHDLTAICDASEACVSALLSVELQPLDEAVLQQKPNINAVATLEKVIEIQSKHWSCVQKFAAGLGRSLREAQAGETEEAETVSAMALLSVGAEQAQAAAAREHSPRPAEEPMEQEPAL
Cone cGMP-specific 3',5'-cyclic phosphodiesterase subunit alpha', sequence (P51160 whole entry): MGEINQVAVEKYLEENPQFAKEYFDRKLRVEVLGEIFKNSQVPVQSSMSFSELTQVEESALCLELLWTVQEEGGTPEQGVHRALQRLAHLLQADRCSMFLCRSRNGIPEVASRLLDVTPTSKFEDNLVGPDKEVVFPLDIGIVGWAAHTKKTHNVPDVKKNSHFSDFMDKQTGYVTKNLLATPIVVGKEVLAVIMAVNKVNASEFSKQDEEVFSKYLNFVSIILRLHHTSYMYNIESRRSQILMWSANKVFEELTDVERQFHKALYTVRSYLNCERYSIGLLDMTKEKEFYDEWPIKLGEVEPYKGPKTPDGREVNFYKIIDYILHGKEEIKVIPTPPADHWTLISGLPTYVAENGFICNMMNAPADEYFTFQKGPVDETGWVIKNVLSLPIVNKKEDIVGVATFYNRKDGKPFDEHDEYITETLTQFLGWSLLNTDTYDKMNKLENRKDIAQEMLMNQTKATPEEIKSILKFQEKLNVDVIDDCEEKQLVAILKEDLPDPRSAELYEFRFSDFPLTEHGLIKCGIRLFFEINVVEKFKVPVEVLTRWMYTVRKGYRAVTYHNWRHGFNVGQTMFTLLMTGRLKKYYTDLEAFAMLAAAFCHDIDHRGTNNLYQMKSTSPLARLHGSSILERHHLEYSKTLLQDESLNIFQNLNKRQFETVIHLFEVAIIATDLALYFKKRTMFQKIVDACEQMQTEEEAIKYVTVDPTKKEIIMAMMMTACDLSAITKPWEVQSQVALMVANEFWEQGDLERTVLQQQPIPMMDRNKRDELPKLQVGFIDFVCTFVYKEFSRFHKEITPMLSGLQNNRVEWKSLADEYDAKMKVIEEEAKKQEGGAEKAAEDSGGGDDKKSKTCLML
Histone deacetylase 4, sequence (P56524 whole entry): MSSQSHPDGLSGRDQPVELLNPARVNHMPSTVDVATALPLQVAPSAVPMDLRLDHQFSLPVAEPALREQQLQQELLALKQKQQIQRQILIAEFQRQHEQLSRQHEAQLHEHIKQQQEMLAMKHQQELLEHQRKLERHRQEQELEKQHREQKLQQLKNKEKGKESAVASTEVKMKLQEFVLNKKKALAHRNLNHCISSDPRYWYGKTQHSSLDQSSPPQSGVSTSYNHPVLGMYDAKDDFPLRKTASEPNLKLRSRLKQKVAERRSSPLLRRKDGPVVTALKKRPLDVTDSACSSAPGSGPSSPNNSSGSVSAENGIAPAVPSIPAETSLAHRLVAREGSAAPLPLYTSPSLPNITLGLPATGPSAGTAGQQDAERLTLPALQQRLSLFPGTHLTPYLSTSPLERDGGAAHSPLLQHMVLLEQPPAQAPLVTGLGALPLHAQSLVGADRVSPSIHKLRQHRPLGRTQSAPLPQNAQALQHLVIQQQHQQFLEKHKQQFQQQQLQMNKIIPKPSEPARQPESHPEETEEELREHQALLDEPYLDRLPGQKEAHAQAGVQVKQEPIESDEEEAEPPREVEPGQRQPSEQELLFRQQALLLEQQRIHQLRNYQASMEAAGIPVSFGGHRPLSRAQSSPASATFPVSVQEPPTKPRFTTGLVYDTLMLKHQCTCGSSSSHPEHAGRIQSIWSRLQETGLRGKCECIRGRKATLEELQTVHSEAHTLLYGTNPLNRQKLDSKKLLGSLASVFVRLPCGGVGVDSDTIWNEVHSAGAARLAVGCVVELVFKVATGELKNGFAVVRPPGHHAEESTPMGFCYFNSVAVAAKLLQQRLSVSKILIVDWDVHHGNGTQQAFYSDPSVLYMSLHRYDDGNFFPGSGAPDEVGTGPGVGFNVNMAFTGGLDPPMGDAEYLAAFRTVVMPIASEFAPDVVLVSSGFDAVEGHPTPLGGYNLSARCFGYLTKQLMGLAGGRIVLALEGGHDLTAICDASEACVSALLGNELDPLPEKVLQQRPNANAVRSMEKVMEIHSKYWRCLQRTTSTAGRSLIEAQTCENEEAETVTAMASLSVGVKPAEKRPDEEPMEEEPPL

With `CCCc1nn(C)c2c(=O)[nH]c(-c3cc(Cc4ccc(C(=O)NO)s4)ccc3OCC)nc12`, the IC50 in [1] is 841 nM; in data set [3] it was 11 nM; in data set [8] it was 1.4 nM; in data set [9], over 10000 nM; in data set [10], over 10000 nM. Also, in data set [2], the residence time came out at 15.5 min. The Papp at 18 h, 50 µM in data set [4] is 2.91 ×10⁻⁶ cm/s. In data set [5], the “inhibition (INH)” value is on record as “Active”. The inhibition at 10 min, 10 µM in data set [6] is under 50%. The compound also yielded a half-life at 1 µM in [7] of 32.7 min. Moreover, the Activity in data set [11] was determined as 68%. The fold induction at 0.1 µM in [12] was determined as 1.8. Further, the fold induction at 1 µM in data set [13] was 12.1.
